In patent US8906925B2, “Pyrido[4,3-B]indoles containing rigid moieties” (Medivation Technologies, Inc., priority 2008, dated 2014):
Where “and” joins values, the source holds several entries; their conditions need not be identical. Identical values can stand only once.

Tests used:
[1] = target: T1, human recombinant histamine H2 receptor (Homo sapiens, UniProt P25021); assay: Histamine H2 radioligand binding ([125I]Aminopotentidine); conditions: read-out: Histamine Binding (1 μM) H2, percent inhibition of specific binding, 1 μM
T1 construct: expressed in transfected cells; host or cells: Chinese hamster ovary (CHO) K1 cells
Protocol: To evaluate in radioligand binding assays the activity of compounds of the invention, human recombinant histamine H2 receptor expressed in Chinese hamster ovary (CHO) K1 cells (Ruat, M., Proc. Natl. Acad. Sci. USA. 87(5):1658, 1990) in a 50 mM Phosphate buffer, pH 7.4 was used. Compounds of the invention were incubated with 0.1 nM [^125I]Aminopotentidine for 120 min. at 25° C. Non-specific binding was estimated in the presence of 3 μM Tiotidine. Receptor proteins were filtered and washed, the filters were then counted to determine [^125I]Aminopotentidine specifically bound.

[2] = target: T2, human recombinant serotonin (5-Hydroxytryptamine) 5-HT6 receptor (Homo sapiens, UniProt P50406); assay: Serotonin 5-HT6 radioligand binding ([3H]LSD); conditions: read-out: Inhibition of ligand binding, Serotonin 5-HT6 (percent inhibition of specific binding); for inhibition at 0.1 µM: compound at 0.1 μM; for inhibition at 1 µM: compound at 1 μM
T2 construct: expressed in transfected cells; host or cells: human HeLa cells
Protocol: Compounds of the invention were incubated with 1.5 nM [3H]Lysergic acid diethylamide (LSD) for 120 min. at 37° C. […] Receptor proteins were filtered and washed, the filters were then counted to determine [3H]LSD specifically bound. Compounds were screened at 1 μM or lower, using 1% DMSO as vehicle. Biochemical assay results are presented as the percent inhibition of specific binding in Table 10.

[3] = target: T3, human recombinant serotonin (5-Hydroxytryptamine) 5-HT2C receptor (Homo sapiens, UniProt P28335); assay: Serotonin 5-HT2C radioligand binding ([3H]Mesulergine); conditions: read-out: Inhibition of ligand binding, Serotonin 5-HT2C (percent inhibition of specific binding); for inhibition at 0.1 µM: compound at 0.1 μM; for inhibition at 1 µM: compound at 1 μM
T3 construct: expressed in transfected cells; host or cells: Chinese hamster ovary (CHO-K1) cells
T3 sequence (P28335 33-458): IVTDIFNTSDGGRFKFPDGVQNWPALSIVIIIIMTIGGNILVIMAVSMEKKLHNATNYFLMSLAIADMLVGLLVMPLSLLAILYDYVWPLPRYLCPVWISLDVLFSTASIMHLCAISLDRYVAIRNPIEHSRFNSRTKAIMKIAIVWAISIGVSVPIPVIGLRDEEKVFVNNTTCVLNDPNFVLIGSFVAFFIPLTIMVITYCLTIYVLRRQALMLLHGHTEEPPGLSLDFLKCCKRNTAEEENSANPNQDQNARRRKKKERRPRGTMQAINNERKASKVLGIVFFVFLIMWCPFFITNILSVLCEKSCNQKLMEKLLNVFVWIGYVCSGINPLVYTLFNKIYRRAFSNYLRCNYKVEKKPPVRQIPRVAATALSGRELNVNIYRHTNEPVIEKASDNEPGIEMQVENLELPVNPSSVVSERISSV
Summary of the method: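 Compounds tested at 1 μM or lower (1% DMSO vehicle) for displacement of 1 nM [3H]Mesulergine over 60 min at 25° C. Specific binding determined by filtration counting, with 1 μM Mianserin defining non-specific binding; values are percent inhibition.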

[4] = target: human recombinant serotonin (5-Hydroxytryptamine) 5-HT7 receptor (Homo sapiens, UniProt P34969); assay: Serotonin 5-HT7 radioligand binding ([3H]LSD); conditions: compound at 1 μM; read-out: Inhibition of ligand binding, Serotonin 5-HT7 (percent inhibition of specific binding)
Description: Receptor proteins were filtered and washed, the filters were then counted to determine [^3H]LSD specifically bound.

histamine receptor H1 = histamine receptor H1 (Homo sapiens, UniProt P35367); assay: Histamine H1 radioligand binding ([3H]Pyrilamine); conditions: for inhibition at 1 µM: read-out: Histamine Binding (1 μM) H1, percent inhibition of specific binding, 1 μM
Summary of the method: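 Values are percent inhibition of specific [3H]pyrilamine (1.2 nM) binding with compounds at ≤1 μM (1% DMSO vehicle); 180 min incubation at 25 °C, pH 7.4 Tris buffer, on CHO-expressed human H1 receptor; 1 μM pyrilamine defined nonspecific binding, bound ligand counted after filtration.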

[5] = target: T4, human recombinant serotonin (5-Hydroxytryptamine) 5-HT2A receptor (Homo sapiens, UniProt P28223); assay: Serotonin 5-HT2A radioligand binding ([3H]Ketanserin); conditions: for inhibition at 0.1 µM: read-out: Inhibition of ligand binding, Serotonin 5-HT2A (percent inhibition of specific binding), compound at 0.1 μM; for inhibition at 1 µM: read-out: Inhibition of ligand binding, Serotonin 5-HT2A (percent inhibition of specific binding), compound at 1 μM
T4 construct: expressed in transfected cells; host or cells: Chinese hamster ovary (CHO-K1) cells
Protocol: Compounds of the invention were incubated with 0.5 nM [^3H]Ketanserin for 60 min. at 25° C. Non-specific binding was estimated in the presence of 1 μM Mianserin. Receptor proteins were filtered and washed, the filters were then counted to determine [^3H]Ketanserin specifically bound.

[6] = target: human dopamine D2L receptor (Homo sapiens, UniProt P14416); assay: Dopamine D2L radioligand binding ([3H]Spiperone); conditions: percent inhibition of specific binding, compound at 1 μM; for Inhibition of ligand binding, Dopamine D2L: 1 µM; for inhibition at 1 µM: read-out: Inhibition of ligand binding, Dopamine D2L
Description: Non-specific binding was estimated in the presence of […] Haloperidol. Receptor proteins were filtered and washed, the filters were then counted to determine [^3H]Spiperone specifically bound. […] Biochemical assay results are presented as the percent inhibition of specific binding in Table 9.

T1 sequence (P25021 whole entry): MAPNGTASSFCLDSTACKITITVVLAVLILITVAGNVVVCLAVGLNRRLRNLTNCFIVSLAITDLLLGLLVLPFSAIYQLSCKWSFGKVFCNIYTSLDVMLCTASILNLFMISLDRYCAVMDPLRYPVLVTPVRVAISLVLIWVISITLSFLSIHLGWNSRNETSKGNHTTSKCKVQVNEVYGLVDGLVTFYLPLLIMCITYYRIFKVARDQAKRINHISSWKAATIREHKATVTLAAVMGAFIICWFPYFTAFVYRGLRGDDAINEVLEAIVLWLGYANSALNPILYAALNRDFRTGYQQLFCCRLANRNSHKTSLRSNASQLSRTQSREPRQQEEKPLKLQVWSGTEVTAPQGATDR
T4 sequence (P28223 whole entry): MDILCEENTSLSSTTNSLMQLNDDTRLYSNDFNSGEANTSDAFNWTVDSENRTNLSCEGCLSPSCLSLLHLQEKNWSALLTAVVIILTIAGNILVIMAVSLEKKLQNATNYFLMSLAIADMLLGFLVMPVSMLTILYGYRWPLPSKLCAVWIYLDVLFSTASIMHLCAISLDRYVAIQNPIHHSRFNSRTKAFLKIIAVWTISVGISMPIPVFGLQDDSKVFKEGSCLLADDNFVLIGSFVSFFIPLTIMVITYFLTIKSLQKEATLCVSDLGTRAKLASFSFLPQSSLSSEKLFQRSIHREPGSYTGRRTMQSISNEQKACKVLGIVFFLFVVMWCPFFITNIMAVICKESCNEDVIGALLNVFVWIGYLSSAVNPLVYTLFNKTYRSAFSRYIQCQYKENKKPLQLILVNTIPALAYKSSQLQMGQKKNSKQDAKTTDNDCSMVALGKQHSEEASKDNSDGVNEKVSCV
T2 sequence (P50406 whole entry): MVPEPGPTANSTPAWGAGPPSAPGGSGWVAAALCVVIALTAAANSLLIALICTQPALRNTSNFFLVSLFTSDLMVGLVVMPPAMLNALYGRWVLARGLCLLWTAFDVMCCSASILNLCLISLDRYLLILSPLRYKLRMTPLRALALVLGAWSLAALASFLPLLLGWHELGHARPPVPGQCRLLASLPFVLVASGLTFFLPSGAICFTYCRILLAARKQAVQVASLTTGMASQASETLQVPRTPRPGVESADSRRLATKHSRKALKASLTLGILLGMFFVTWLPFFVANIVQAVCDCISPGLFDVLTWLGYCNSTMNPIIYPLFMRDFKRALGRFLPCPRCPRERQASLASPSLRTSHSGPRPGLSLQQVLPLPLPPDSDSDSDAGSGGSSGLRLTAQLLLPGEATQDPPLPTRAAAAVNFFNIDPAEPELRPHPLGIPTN
Sequence of histamine receptor H1 (P35367 whole entry): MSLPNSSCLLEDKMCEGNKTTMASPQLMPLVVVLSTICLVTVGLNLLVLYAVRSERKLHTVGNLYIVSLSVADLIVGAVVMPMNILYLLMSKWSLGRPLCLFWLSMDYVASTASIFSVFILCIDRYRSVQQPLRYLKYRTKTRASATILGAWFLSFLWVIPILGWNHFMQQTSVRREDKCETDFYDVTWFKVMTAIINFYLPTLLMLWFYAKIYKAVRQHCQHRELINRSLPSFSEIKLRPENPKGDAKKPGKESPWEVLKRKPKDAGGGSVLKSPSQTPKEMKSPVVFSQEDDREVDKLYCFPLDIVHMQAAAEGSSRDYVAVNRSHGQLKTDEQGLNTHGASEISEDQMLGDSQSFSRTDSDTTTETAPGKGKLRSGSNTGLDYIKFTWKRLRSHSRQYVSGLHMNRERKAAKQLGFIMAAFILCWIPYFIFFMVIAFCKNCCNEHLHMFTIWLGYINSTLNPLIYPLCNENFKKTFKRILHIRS
Sequence of human dopamine D2L receptor (P14416 whole entry): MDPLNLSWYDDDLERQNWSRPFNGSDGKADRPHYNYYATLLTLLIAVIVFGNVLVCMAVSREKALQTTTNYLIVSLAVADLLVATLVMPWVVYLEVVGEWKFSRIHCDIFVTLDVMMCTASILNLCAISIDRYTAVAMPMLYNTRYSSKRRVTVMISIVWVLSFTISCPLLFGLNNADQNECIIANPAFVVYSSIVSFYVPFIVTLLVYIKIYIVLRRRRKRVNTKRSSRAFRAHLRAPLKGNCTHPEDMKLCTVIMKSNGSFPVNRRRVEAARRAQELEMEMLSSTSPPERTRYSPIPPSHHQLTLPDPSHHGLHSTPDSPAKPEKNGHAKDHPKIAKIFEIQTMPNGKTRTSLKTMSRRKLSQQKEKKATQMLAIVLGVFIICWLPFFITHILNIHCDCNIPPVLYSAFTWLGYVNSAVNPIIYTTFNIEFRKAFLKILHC
Sequence of human recombinant serotonin (5-Hydroxytryptamine) 5-HT7 receptor (P34969 whole entry): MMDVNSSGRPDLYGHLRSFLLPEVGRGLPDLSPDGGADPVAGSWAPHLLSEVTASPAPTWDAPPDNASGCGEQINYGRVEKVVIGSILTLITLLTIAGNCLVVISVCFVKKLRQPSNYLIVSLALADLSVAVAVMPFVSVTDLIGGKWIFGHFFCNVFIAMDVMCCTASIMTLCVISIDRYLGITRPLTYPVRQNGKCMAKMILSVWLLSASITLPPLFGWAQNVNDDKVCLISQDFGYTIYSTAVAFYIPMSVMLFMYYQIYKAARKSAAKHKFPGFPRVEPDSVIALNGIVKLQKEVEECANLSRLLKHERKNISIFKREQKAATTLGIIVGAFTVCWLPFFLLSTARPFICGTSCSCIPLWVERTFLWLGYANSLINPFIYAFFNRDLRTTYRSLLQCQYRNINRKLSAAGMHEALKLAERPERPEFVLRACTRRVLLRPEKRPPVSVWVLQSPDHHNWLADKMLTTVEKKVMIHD

Row | Compound | inhibition at 1 µM [1] | inhibition at 0.1 µM [2] | inhibition at 1 µM [2] | inhibition at 0.1 µM [3] | inhibition at 1 µM [3] | inhibition at 1 µM [4] | Histamine Binding (1 μM) H1, percent inhibition of specific binding (histamine receptor H1) | inhibition at 0.1 µM [5] | inhibition at 1 µM [5] | Inhibition of ligand binding, Dopamine D2L [6] | inhibition at 1 µM [6] | inhibition at 1 µM (histamine receptor H1)
1 | C/C(=C\n1c2c(c3cc(C)ccc31)CN(C)CC2)c1cc(Cl)cc(Cl)c1 [Compound 218, (E)-5-(2-(3,5-dichlorophenyl)prop-1-enyl)-2,8-dimethyl-2,3,4,5-tetrahydro-1H-pyrido[4,3-b]indole] | 98% | 85% | 99% | 92% | 96% | 93% | 78% and 79% | 94% | 99% | 43% | 40% | 
2 | C/C(=C\n1c2c(c3ccc(Cl)cc31)CN(C)CC2)c1ccncc1 [Compound 219, (E)-7-chloro-2-methyl-5-(2-(pyridin-4-yl)prop-1-enyl)-2,3,4,5-tetrahydro-1H-pyrido[4,3-b]indole] | 82% | 96% | 102% | 94% | 98% | 94% | 66% | 100% | 101% | 97% | 96% | 60%
3 | C/C(=C/n1c2c(c3cc(C)ccc31)CN(C)CC2)c1cc(F)c(F)cc1Cl [Compound 220, (Z)-5-(2-(2-chloro-4,5-difluorophenyl)prop-1-enyl)-2,8-dimethyl-2,3,4,5-tetrahydro-1H-pyrido[4,3-b]indole] | 99% |  | 99% |  | 98% | 104% |  |  | 99% |  | 32% | 91%
4 | C/C(=C\n1c2c(c3cc(C)ccc31)CN(C)CC2)c1cc(F)c(F)cc1Cl [Compound 221, (E)-5-(2-(2-chloro-4,5-difluorophenyl)prop-1-enyl)-2,8-dimethyl-2,3,4,5-tetrahydro-1H-pyrido[4,3-b]indole] | 98% |  | 95% |  | 99% | 93% |  |  | 97% |  | 34% | 90%
5 | C/C(=C\n1c2c(c3cccc(Cl)c31)CN(C)CC2)c1ccncc1 [Compound 222, (E)-6-chloro-2-methyl-5-(2-(pyridin-4-yl)prop-1-enyl)-2,3,4,5-tetrahydro-1H-pyrido[4,3-b]indole] | 91% |  | 102% |  | 99% | 69% |  |  | 100% |  | 82% | 25%
6 | C/C(=C/n1c2c(c3cc(C)ccc31)CN(C)CC2)c1cccc(F)c1 [Compound 225, (Z)-5-(2-(3-fluorophenyl)prop-1-enyl)-2,8-dimethyl-2,3,4,5-tetrahydro-1H-pyrido[4,3-b]indole] | 98% |  | 103% |  | 100% | 94% |  |  | 99% |  | 43% | 81%
7 | C/C(=C\n1c2c(c3cc(C)ccc31)CN(C)CC2)c1cccc(F)c1 [Compound 226, (E)-5-(2-(3-fluorophenyl)prop-1-enyl)-2,8-dimethyl-2,3,4,5-tetrahydro-1H-pyrido[4,3-b]indole] | 100% |  | 101% |  | 100% | 100% |  |  | 98% |  | 46% | 71%
8 | C/C(=C\n1c2c(c3ccc(F)cc31)CN(C)CC2)c1ccc(F)cc1 [Compound 227, (E)-7-fluoro-5-(2-(4-fluorophenyl)prop-1-enyl)-2-methyl-2,3,4,5-tetrahydro-1H-pyrido[4,3-b]indole] | 101% |  | 107% |  | 103% | 90% |  |  | 103% |  | 97% | 52%
9 | C/C(=C\n1c2c(c3ccc(Cl)cc31)CN(C)CC2)c1ccc(F)cc1 [Compound 228, (E)-7-chloro-5-(2-(4-fluorophenyl)prop-1-enyl)-2-methyl-2,3,4,5-tetrahydro-1H-pyrido[4,3-b]indole] | 102% |  | 106% |  | 97% | 97% |  |  | 101% |  | 98% | 66%
10 | C/C(=C\n1c2c(c3ccc(C(F)(F)F)cc31)CN(C)CC2)c1ccc(F)cc1 [Compound 229, (E)-5-(2-(4-fluorophenyl)prop-1-enyl)-2-methyl-7-(trifluoromethyl)-2,3,4,5-tetrahydro-1H-pyrido[4,3-b]indole] | 96% |  | 107% |  | 100% | 89% |  |  | 100% |  | 100% | 54%
11 | C/C(=C\n1c2c(c3cc(C)ccc31)CN(C)CC2)c1ccc(F)c(F)c1 [Compound 230, (E)-5-(2-(3,4-difluorophenyl)prop-1-enyl)-2,8-dimethyl-2,3,4,5-tetrahydro-1H-pyrido[4,3-b]indole] | 96% |  | 97% |  | 100% | 93% |  |  | 98% |  | 44% | 35%
12 | C/C(=C\n1c2c(c3cc(C)ccc31)CN(C)CC2)c1ccc(Cl)c(Cl)c1 [Compound 231, (E)-5-(2-(3,4-dichlorophenyl)prop-1-enyl)-2,8-dimethyl-2,3,4,5-tetrahydro-1H-pyrido[4,3-b]indole] | 97% |  | 97% |  | 98% | 94% |  |  | 101% |  | 40% | 58%
13 | C/C(=C\n1c2c(c3c(Cl)c(Cl)ccc31)CN(C)CC2)c1ccc(F)cc1 [Compound 232, (E)-8,9-dichloro-5-(2-(4-fluorophenyl)prop-1-enyl)-2-methyl-2,3,4,5-tetrahydro-1H-pyrido[4,3-b]indole] | 95% |  | 103% |  | 98% | 84% |  |  | 99% |  | 91% | 71%
